# US10563263B2, “Genetic polymorphisms associated with statin response and cardiovascular diseases, methods of detection and uses thereof” (CELERA CORPORATION, priority 2010, dated 2020)
# System: CVD (CHD or stroke)
# Experiment: Meta-analysis of CARE and WOSCOPS combined, synergy index, CVD endpoint
# Type: in vivo, human
# Description: Tables 4-5 provide meta-analyses of CARE and WOSCOPS combined (2nd section of each table) for two endpoints (CHD and CVD) and three genetic models (dominant, recessive, and additive), as well as logistic regression analyses of CARE (3rd section of each table) and WOSCOPS (4th section of each table) individually.
# Tables 12 and 17 provide results of meta-analysis of the CARE and WOSCOPS sample sets combined by direct genotyping and by imputing genotypes.
# “P” indicates the p-value, and “P(R)” (or “P.R.”) indicates the p-value random effect. Both of these are p-values corresponding to a statistical test of whether the combined synergy index is equal to one but use different assumptions to derive the p-value. “P” is calculated using a fixed effects model, and “P(R)” is calculated using a random effects model.
# “OR” indicates the odds ratio (synergy index) calculated from a fixed effects model, and “OR(R)” (or “OR.R.”) indicates the odds ratio (synergy index) calculated from a random effects model.
compound,measurement,setting,value
"CC[C@H](C)C(=O)O[C@H]1C[C@H](O)C=C2C=C[C@H](C)[C@H](CC[C@@H](O)C[C@@H](O)CC(=O)O)[C@H]21 [Pravastatin, pravastatin]",OR(R),rs483159 allele T DOMINANT Imputed,1.4202
same,OR(R),rs489441 allele G ADDITIVE Imputed,1.4992
same,OR(R),rs489441 allele G DOMINANT Imputed,1.6072
same,OR(R),"rs937890 allele G (A1), DOMINANT, Imputed",0.6731
same,OR(R),"rs949016 allele C (A1), ADDITIVE, Imputed",1.5082
same,OR(R),"rs966583 allele A (A1), ADDITIVE, Imputed",0.7272
same,OR(R),"rs966583 allele A (A1), DOMINANT, Imputed",0.5916
same,OR(R),"rs974130 allele A (A1), RECESSIVE, Genotyped",2.0112
same,OR(R),"rs977160 allele T (A1), ADDITIVE, Imputed",1.5465
same,OR(R),"rs985375 allele A (A1), GENOTYPIC, Imputed",2.8891
same,OR(R),rs4760895 allele A ADDITIVE Imputed,0.7392
same,OR(R),rs4760895 allele A DOMINANT Imputed,0.6285
same,OR(R),rs4760895 allele A GENOTYPIC Imputed,0.574
same,OR(R),rs4764738 allele A ADDITIVE Imputed,1.4051
same,OR(R),rs4764738 allele A GENOTYPIC Imputed,1.9728
same,OR(R),rs4764974 allele T ADDITIVE Imputed,1.3855
same,OR(R),rs4764974 allele T GENOTYPIC Imputed,1.9196
same,OR(R),rs4798366 allele G RECESSIVE Imputed,1.8332
same,OR(R),rs4836502 allele T DOMINANT Imputed,0.6712
same,OR(R),rs4836507 allele C DOMINANT Imputed,0.6775
same,OR(R),rs4836744 allele A ADDITIVE Imputed,0.7345
same,OR(R),rs4836744 allele A DOMINANT Imputed,0.6854
same,OR(R),rs4848944 allele C RECESSIVE Genotyped,0.5819
same,OR(R),rs4851529 allele A DOMINANT Imputed,0.6476
same,OR(R),rs4851531 allele T DOMINANT Imputed,0.6602
same,OR(R),rs4858046 allele T GENOTYPIC Genotyped,2.0533
same,OR(R),rs4878214 allele A ADDITIVE Imputed,0.6477
same,OR(R),rs4880803 allele A ADDITIVE Imputed,0.7694
same,OR(R),rs4896568 allele T DOMINANT Imputed,0.6231
same,OR(R),rs4938851 allele T DOMINANT Imputed,1.4515
same,OR(R),rs4964416 allele C DOMINANT Imputed,0.6251
same,OR(R),rs5756669 allele C DOMINANT Imputed,1.6531
same,OR(R),rs6033138 allele C ADDITIVE Imputed,1.3837
same,OR(R),rs6033138 allele C GENOTYPIC Imputed,1.9484
same,OR(R),rs6033138 allele C RECESSIVE Imputed,1.6769
same,OR(R),rs6040619 allele C ADDITIVE Imputed,1.3881
same,OR(R),rs6040619 allele C GENOTYPIC Imputed,2.0334
same,OR(R),rs6040619 allele C RECESSIVE Imputed,1.7879
same,OR(R),rs6040625 allele T ADDITIVE Imputed,1.3888
same,OR(R),rs6040625 allele T GENOTYPIC Imputed,2.0214
same,OR(R),rs6040625 allele T RECESSIVE Imputed,1.7684
same,OR(R),rs6040630 allele A ADDITIVE Imputed,1.3767
same,OR(R),rs6040630 allele A GENOTYPIC Imputed,1.9741
same,OR(R),rs6040630 allele A RECESSIVE Imputed,1.7241
same,OR(R),rs6040633 allele A ADDITIVE Imputed,1.3703
same,OR(R),rs6040633 allele A GENOTYPIC Imputed,1.9475
same,OR(R),rs6040633 allele A RECESSIVE Imputed,1.6999
same,OR(R),rs6040634 allele T ADDITIVE Imputed,1.3722
same,OR(R),rs6040634 allele T GENOTYPIC Imputed,1.9531
same,OR(R),rs6040634 allele T RECESSIVE Imputed,1.7021
same,OR(R),rs6040636 allele T ADDITIVE Imputed,1.3761
same,OR(R),rs6040636 allele T GENOTYPIC Imputed,1.9585
same,OR(R),rs6040636 allele T RECESSIVE Imputed,1.7021
same,OR(R),rs6040638 allele C ADDITIVE Imputed,1.3722
same,OR(R),rs6040638 allele C GENOTYPIC Imputed,1.9531
same,OR(R),rs6040638 allele C RECESSIVE Imputed,1.7021
same,OR(R),rs6040644 allele A ADDITIVE Imputed,1.3722
same,OR(R),"rs9309988 allele G (A1), DOMINANT, Imputed",1.9381
same,OR(R),"rs9309989 allele C (A1), DOMINANT, Genotyped",1.9491
same,OR(R),"rs9310221 allele A (A1), DOMINANT, Imputed",1.8519
same,OR(R),"rs9327555 allele T (A1), DOMINANT, Imputed",0.5753
same,OR(R),"rs9454967 allele G (A1), ADDITIVE, Imputed",2.1926
same,OR(R),"rs9454967 allele G (A1), DOMINANT, Imputed",2.4795
same,OR(R),"rs9471295 allele T (A1), DOMINANT, Imputed",1.5391
same,OR(R),"rs9477007 allele A (A1), ADDITIVE, Imputed",1.429
same,OR(R),"rs9477007 allele A (A1), GENOTYPIC, Imputed",2.0759
same,OR(R),"rs9487279 allele T (A1), DOMINANT, Imputed",0.5948
same,OR(R),"rs9555973 allele G (A1), ADDITIVE, Imputed",0.5479
same,OR(R),"rs9555973 allele G (A1), DOMINANT, Imputed",0.5157
same,OR(R),"rs9557510 allele G (A1), ADDITIVE, Imputed",1.6102
same,OR(R),"rs9557510 allele G (A1), DOMINANT, Imputed",1.7706
same,OR(R),"rs9560584 allele T (A1), DOMINANT, Imputed",0.512
same,OR(R),"rs9588770 allele T (A1), DOMINANT, Imputed",0.5187
same,OR(R),"rs9588848 allele C (A1), ADDITIVE, Imputed",0.5369
same,OR(R),"rs9588848 allele C (A1), DOMINANT, Imputed",0.5009
same,OR(R),"rs9812206 allele G (A1), ADDITIVE, Imputed",0.4469
same,OR(R),"rs9812206 allele G (A1), DOMINANT, Imputed",0.4369
same,OR(R),"rs9813552 allele G (A1), ADDITIVE, Imputed",0.4493
same,OR(R),"rs9813552 allele G (A1), DOMINANT, Imputed",0.4387
same,OR(R),"rs9815037 allele T (A1), ADDITIVE, Imputed",0.4461
same,OR(R),"rs9815037 allele T (A1), DOMINANT, Imputed",0.4354
same,OR(R),"rs9825349 allele A (A1), ADDITIVE, Imputed",0.4461
same,OR(R),"rs9825349 allele A (A1), DOMINANT, Imputed",0.4354
same,OR(R),"rs9834217 allele T (A1), ADDITIVE, Imputed",0.4466
same,OR(R),"rs9834217 allele T (A1), DOMINANT, Imputed",0.4359
same,OR(R),"rs9840460 allele T (A1), ADDITIVE, Imputed",0.4461
same,OR(R),"rs9840460 allele T (A1), DOMINANT, Imputed",0.4354
same,OR(R),"rs9840756 allele A (A1), ADDITIVE, Imputed",0.4458
same,OR(R),"rs9840756 allele A (A1), DOMINANT, Imputed",0.435
same,OR(R),"rs9844801 allele C (A1), DOMINANT, Imputed",1.9381
same,OR(R),"rs9869187 allele C (A1), ADDITIVE, Imputed",0.4651
same,OR(R),"rs9869187 allele C (A1), DOMINANT, Imputed",0.4704
same,OR(R),"rs9872327 allele T (A1), DOMINANT, Imputed",1.9381
same,OR(R),"rs9881685 allele A (A1), ADDITIVE, Imputed",0.4438
same,OR(R),"rs9881685 allele A (A1), DOMINANT, Imputed",0.4332
same,OR(R),"rs9909499 allele C (A1), DOMINANT, Imputed",1.4669
same,OR(R),"rs9911847 allele G (A1), DOMINANT, Imputed",0.6755
same,OR(R),"rs9946886 allele G (A1), RECESSIVE, Imputed",0.3084
same,OR(R),"rs9958823 allele A (A1), ADDITIVE, Imputed",1.5292
same,OR(R),"rs9965248 allele T (A1), ADDITIVE, Imputed",1.4965
